Measured values as given in patent US5348941A, “Stabilizers for fibroblast growth factors” (Merck & Co., Inc., priority 1992, dated 1994).

Assays:
aFGF = biological target: T1, aFGF (Homo sapiens, UniProt P05230); assay: Thermal denaturation (Tm) of aFGF by circular dichroism; assay type: biochemical; details: for Tm of aFGF (maximum Tm induced by ligand), circular dichroism: PBS pH 7.2, excess ligand (1-3X by weight; 120 mM sodium sulfate, 10 mM tetrapolyphosphate); for Tm of aFGF, circular dichroism: 3X ligand by weight
T1 construct: The recombinant derived, 140 amino add form is the preferred form of aFGF; N-terminal methionine (MetHaFGF); made in house; host or cells: microbial cells (preferred embodiment)
Description: Circular Dichroism (CD) spectra are measured with an AVIV 62 DS spectropolarimeter. Samples of aFGF at about 100 μg/ml in a PBS buffer (6 mM sodium phosphate, 120 mM NaCl, pH 7.2) containing various ligands are placed into 1 mm pathlength cells and the cell temperature is controlled by circulating a water/ethylene glycol mixture through the cell holder. Thermal denaturation is carded out under computer control by increasing the temperature of the water bath in 2° C. increments, followed by a two-minute equilibration period at each temperature to allow the sample to reach thermal equilibrium. Reproducibility of the midpoint of these temperature melting curves (Tm) is ±2° C.
The maximum Tm values induced by 12 different ligands as determined by circular dichroism measurements at 228 nm are summarized in the first column of Table II. All of these ligands stabilize aFGF by 15°-25° C. in a manner similar to that originally observed with heparin. […] Furthermore, sulfate unions are found near analogous residues in the crystal structure of basic FGF, Eriksson et al., Proc. Natl. Acad. Sd. USA 88:3441-3445 (1991); Zhang et al., Proc. Natl. Acad. Sci. USA 88:3446-3450 (1991). Consequently, it seemed important to examine the ability of these ligands to stabilize aFGF during thermal denaturation as monitored by both fluorescence and circular dichroism. The Tm value of aFGF increased from 27° C. to 43° C. (fluorescence)and 45° C. to 51° C. (CD) when a 100 molar excess (3X by weight) of (IrCl6)^-3 was present. Similarly, sulfate union (120 mM) produced a species that was even more dramatically stabilized, melting at 57° C. (CD).
^(a) Thermal melting temperatures were measured by circular dichroism
Samples contained […] aFGF in PBS buffer pH 7.2 with excess ligand
(1-3× by weight except for 120 mM sodium sulfate and 10 mM

[1] = tested on: BALB/c 3T3 A31 fibroblasts; assay: Fibroblast mitogenic assay ([3H]-thymidine incorporation into DNA); assay type: cell-based; set-up: Bioactivity (mitogenic activity of aFGF in the presence of ligand): unit not given here; details: for mitogenic activity of aFGF: absence of heparin; for Bioactivity (mitogenic activity of aFGF in the presence of ligand): complete absence of heparin, < = response did not plateau, * = cell death observed
Description: Biological activity of the formulation of the instant invention is determined by a modification of the fibroblast mitogenic assay as described by Linemeyer et al. in European Patent Application, Publication No. 259,953. BALB/c 3T3 A31 fibroblasts (American Type Culture Collection) are plated at about 3×10^5 cells per 32 cm^2 wells in culture media containing about 10% heat-inactivated calf serum and incubated in about 7% CO2 (pH 7.35±0.05). The cells become fully quiescent by replacing the media with serum free media at about 6, about 24 hours and about 48 hours later. At about 53 hours after plating samples of the various formulations are added and about 0.12 μg of dexamethasone are added. At about 65 hours each well is supplemented with about 0.4 μCi of [methyl-^3 H]-thymidine (20 Ci/mmole, Dupont) and 0.6 μg of unlabeled thymidine (Sigma), and at 80 hours the cells are processed for determination of radiolabel incorporation into DNA. Each dose-response point is the average of at least quadruplicate determinations. Other cell types such vascular endothelial cells and corneal endothelial cells can be employed to determine in vitro mitogenicity. The procedures are described in detail by Thomas et al., Proc. Natl. Acad. Sci. USA 82:6409-6431 (1985).
^(d) Mitogenic activity of aFGF was measured in the presence of ligan
indicated in the complete absence of heparin.
*indicates cell death observed during assay.
Biological activity of the formulation of the instant invention was determined by a modification of the fibroblast mitogenic assay as described by Linemeyer et al. in European Patent Application, Publication No. 259,953. BALB/c 3T3 A31 fibroblasts (American Type Culture Collection) were plated at 3×10^5 cells per 32 cm^2 well in culture media containing about 10% heat-inactivated calf serum and incubated in 7% CO2 (pH 7.35±0.05). The cells become fully quiescent by replacing the media with serum free media at 6, 24 hours and 48 hours later. At 53 hours after plating samples of the various formulations were added and 0.12 μg of dexamethasone was added, at 65 hours each well was supplemented with 0.4 μCi of [methyl-^3 H]-thymidine (20 Ci/mmole, Dupont) and 0.6 μg of unlabeled thymidine (Sigma), and at 80 hours the cells were processed for determination of radiolabel incorporation into DNA. Each dose-response point is the average of at least quadruplicate determinations. Other cell types such vascular endothelial cells and corneal endothelial cells can be employed to determine in vitro mitogenidty. The procedures are described in detail by Thomas et al., Proc. Natl. Acad. Sci. USA 82:6409-6431 (1985).

T1 sequence (P05230 16-155 limits assumed): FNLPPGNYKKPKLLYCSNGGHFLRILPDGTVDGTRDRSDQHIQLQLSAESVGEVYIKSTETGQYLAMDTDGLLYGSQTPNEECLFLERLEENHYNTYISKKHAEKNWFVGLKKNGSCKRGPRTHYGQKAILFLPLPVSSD

Molecule	Tm of aFGF (maximum Tm induced by ligand), circular dichroism (aFGF)	mitogenic activity of aFGF [1]	Bioactivity (mitogenic activity of aFGF in the presence of ligand) [1]	Tm of aFGF, circular dichroism (aFGF)
O=P(O)(O)O[C@H]1[C@H](OP(=O)(O)O)[C@@H](OP(=O)(O)O)[C@H](OP(=O)(O)O)[C@@H](OP(=O)(O)O)[C@H]1OP(=O)(O)O [Inositol hexaphosphate, inositol hexaphosphate]	70 °C	did not show any appreciable mitogenic activity	< 0.6	
O=S(=O)(O)OC1C(OS(=O)(=O)O)C(OS(=O)(=O)O)C(OS(=O)(=O)O)C(OS(=O)(=O)O)C1OS(=O)(=O)O (stereo not drawn) [Inositol hexasulfate, inositol hexasulfate]	66 °C		2.3	
low molecular weight heparin [Low MW heparin, reference compound]	66 °C		4.0	
sulfated β-cyclodextrin	65 °C		3.7	65 °C

More lines, main results first:

Tm of aFGF (maximum Tm induced by ligand), circular dichroism (aFGF)	Molecule	mitogenic activity of aFGF [1]	Bioactivity (mitogenic activity of aFGF in the presence of ligand) [1]	Tm of aFGF, circular dichroism (aFGF)
66 °C	O=P(O)(O)OP(=O)(O)OP(=O)(O)OP(=O)(O)O [Tetrapolyphosphate]	did not show any appreciable mitogenic activity	< 0.25	
62 °C	dextran sulfate		5.0	
64 °C	heparin [reference compound]		4.2	64 °C
